Results on two compounds are retold here after patent US6551999B1, “Angiogenesis inhibitor” (Senju Pharmaceutical Co., Ltd., priority 1995, dated 2003).

What all share (type): biochemical
One experiment deals with T1, μ-calpain (Homo sapiens, UniProt P07384).
T1 construct: purchased Nakalai Tesque
T1 sequence (P07384 1-714): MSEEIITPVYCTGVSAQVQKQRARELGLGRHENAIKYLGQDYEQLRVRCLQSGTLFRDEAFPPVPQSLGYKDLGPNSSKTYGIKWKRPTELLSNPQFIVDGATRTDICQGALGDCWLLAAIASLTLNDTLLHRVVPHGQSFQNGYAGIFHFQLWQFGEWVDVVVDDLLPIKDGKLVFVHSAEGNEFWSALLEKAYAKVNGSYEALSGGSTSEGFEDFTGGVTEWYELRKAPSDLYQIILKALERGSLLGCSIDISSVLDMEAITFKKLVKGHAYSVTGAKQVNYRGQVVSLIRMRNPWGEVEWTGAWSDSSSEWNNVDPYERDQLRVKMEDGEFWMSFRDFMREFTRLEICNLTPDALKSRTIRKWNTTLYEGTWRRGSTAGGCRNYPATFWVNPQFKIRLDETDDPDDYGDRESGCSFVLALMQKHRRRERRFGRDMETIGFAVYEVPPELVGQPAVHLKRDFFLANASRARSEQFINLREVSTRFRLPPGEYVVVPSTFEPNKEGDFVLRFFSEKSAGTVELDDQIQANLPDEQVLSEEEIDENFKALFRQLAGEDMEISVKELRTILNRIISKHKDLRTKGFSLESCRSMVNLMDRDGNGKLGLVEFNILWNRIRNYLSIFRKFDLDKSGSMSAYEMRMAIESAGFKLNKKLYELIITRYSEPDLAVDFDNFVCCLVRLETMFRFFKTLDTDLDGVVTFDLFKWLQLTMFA
T1 sequence (P04632 1-268 partner): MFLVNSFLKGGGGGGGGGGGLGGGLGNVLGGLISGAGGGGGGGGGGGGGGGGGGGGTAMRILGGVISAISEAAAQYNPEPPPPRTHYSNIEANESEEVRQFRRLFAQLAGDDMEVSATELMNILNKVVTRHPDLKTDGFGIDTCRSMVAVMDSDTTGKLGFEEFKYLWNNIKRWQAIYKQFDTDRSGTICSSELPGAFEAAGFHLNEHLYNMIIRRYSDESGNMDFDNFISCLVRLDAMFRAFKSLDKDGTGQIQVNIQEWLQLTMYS
Kind of experiment: μ-Calpain-inhibitory activity (casein substrate). Conditions: 60 minutes at 30° C., pH 7.4, 4 mM calcium chloride. How it is done:
Thus, to a solution containing 0.5 mg/ml casein, 50 mM Tris-HCl (pH 7.4), 20 mM dithiothreitol, and 4 mM calcium chloride was added 2.5 μl of a dimethyl sulfoxide solution containing a varying concentration of the test drug as well as 0.03 unit of μcalpain to initiate the reaction. The final liquid volume was 250 μl. After 60 minutes of reaction at 30° C., 100 μl of the reaction mixture was transferred to another vessel, to which 50 μl of purified water and 100 μl of 50% Coumassie brilliant blue solution were added. […] As a control, 2.5 μl of dimethyl sulfoxide not containing the test drug was added and the mixture was treated in the same manner as above. […] Similarly, the value found by adding 0.2 mM EDTA in lieu of 4 mM aqueous calcium chloride solution was used as the blank value. […] [formula]

The target of a further experiment is T2, papain (Carica papaya, UniProt P00784).
T2 sequence (P00784 134-345): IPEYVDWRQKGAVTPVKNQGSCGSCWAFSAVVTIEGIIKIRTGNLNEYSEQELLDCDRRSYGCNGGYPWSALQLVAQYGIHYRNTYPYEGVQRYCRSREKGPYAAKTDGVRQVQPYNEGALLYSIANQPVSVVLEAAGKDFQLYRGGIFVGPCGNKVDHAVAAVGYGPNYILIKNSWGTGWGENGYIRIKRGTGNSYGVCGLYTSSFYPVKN
Kind of experiment: Assay of papain-inhibitory activity (casein substrate). The note with it: 60 minutes at 30° C., pH 8.0. How it is done:
(§1) The activity of papain which is a cysteine protease and of trypsin (Sigma) which is a serine protease was assayed in accordance with the method described in the literature [Anal. Biochem., 208, 387-392, 1993]. Thus, to a solution containing 0.5 mg/ml casein, 50 mM Tris-HCl (pH 8.0), 20 mM dithiothreitol, and 0.2 mM EDTA was added 2.5 μl of dimethyl sulfoxide containing a varying concentration of the test drug as well as 0.03 unit of papain or trypsin to initiate the reaction. The final liquid volume was adjusted to 250 μl. After 60 minutes of reaction at 30° C., 100 μl of the reaction mixture was transferred to another vessel and following addition of 50 μl of purified water and 100 μl of 50% Coumassie brilliant blue solution, the mixture was allowed to stand at room temperature for 15 minutes. The absorbance of the mixture was then measured at 595 nm. Using the value found similarly by adding 2.5 μl of dimethyl sulfoxide not containing the test drug as control and the value found without addition of the enzyme as blank, IC50 was determined in the same manner as above.

For a further experiment, the target named is T3, trypsin (UniProt P00760).
T3 sequence (P00760 1-246): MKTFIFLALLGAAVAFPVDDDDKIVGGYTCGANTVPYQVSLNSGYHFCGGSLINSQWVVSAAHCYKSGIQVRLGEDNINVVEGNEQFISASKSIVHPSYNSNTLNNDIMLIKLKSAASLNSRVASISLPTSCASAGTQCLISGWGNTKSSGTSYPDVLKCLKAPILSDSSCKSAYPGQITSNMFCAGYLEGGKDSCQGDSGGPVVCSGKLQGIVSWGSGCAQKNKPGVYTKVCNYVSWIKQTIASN
Kind of experiment: Assay of trypsin-inhibitory activity (casein substrate). Conditions: read-out: Trypsin 50% Inhibitory concentration (IC50); 60 minutes at 30° C., pH 8.0. How it is done:
as §1

The next experiment deals with T4, cathepsin L (Homo sapiens, UniProt P07711).
T4 construct: purchased Cosmo Bio
T4 sequence (P07711 114-333, species assumed): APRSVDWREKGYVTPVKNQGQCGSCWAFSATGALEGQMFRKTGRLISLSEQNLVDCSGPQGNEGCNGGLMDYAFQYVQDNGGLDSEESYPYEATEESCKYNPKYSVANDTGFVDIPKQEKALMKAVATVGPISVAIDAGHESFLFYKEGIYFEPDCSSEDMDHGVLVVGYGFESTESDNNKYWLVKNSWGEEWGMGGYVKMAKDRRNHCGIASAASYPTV
Kind of experiment: Assay of cathepsin L-inhibitory activity (Z-Phe-Arg-MCA). The note with it: 20 minutes at 30° C., pH 5.5. How it is done: The activity of cathepsin L (Cosmo Bio), a cysteine protease, was assayed by the method described in the literature [Methods in Enzymology, 80, 535-561, 1981]. Thus, to a solution containing 85 mM acetate buffer (pH 5.5), 2 mM dithiothreitol, 1 mM EDTA, 2 μg cathepsin L, and a varying concentration of the test compound was added 50 μl of 20 μM carbobenzoxy-L-phenylalanyl-L-arginine-4-methylcoumaryl-7-amide (Z-Phe-Arg-MCA) to initiate the reaction at the final liquid volume of 200 μl. After 20 minutes of reaction at 30° C., 20 μl of 1 M Tris-HCl (pH 8.0) was added so as to stop the reaction. The amount of liberated 4-methyl-7-aminocoumarin was determined with a fluorospectrometer at an excitation wavelength of 360 nm and a fluorescent emission wave length of 450 nm. Using the value found without addition of the test drug as control and the value found without addition of the enzyme as blank, IC50 was determined in the same manner as above.

SMILES strings stand for the structures. pIC50: −log10 of the molar value.

In the case of `O=C(O)[C@H]1O[C@@H]1C(=O)NCC(=O)N1CCN(c2ccccc2Cl)CC1` [Compound 22, (2s,3s)-3-[[[[[4-(2-chlorophenyl)-1-piperazinyl]carbonyl]methyl]amino]carbonyl]oxiranecarboxylic acid], the pIC50 at μ-calpain is 4.74; against papain, 5.40; on trypsin it was < 2.52; on cathepsin L, 4.42.
In the same order, the values of `CCC(C)[C@H](NC(=O)[C@H]1O[C@@H]1C(=O)O)C(=O)N1CCN(c2ccccc2Cl)CC1` (some centres unmarked) [Compound 24, (2s,3s)-3-[[[[(1s)-1-[[4-(2-chlorophenyl)-1-piperazinyl]carbonyl]-2-methyl]butyl]amino]carbonyl]oxiranecarboxylic acid] are 6.08, 7.33, < 2.52 and 8.05.
